Source: PubChem BioAssay AID602215 (Sanford-Burnham Center for Chemical Genomics, 2012)
Activity calls are given as the source filed them.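 The calls were made as follows: active = IC50 of 20 µM or lower; inactive = the rest.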

test system: HL-1 cardiomyocytes, H2O2 injury, ATP luminescence, 2 h; assay: protection of HL-1 cardiomyocytes from peroxide injury, dose response, cell-based, ATP luminescence (AID 602215);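 also: potency is for protection so actives raise ATP signal against peroxide damage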

SMILES | IC50
CCOc1ccc(C(C(=O)NC2CCCC2)N(C(=O)c2snc(C(N)=O)c2N)c2cccc(O)c2)cc1 (centres undefined) | 4.32 µM
Cc1cc(C)c(C)c(S(=O)(=O)N2CCN(C(=O)c3cc(=O)[nH]c4ccccc34)CC2)c1C | 18.9 µM
COc1cc(-c2cc(NC(C)=O)c3ncc(-c4ccc(C(C)=O)cc4)n3c2)cc(OC)c1OC | > 79 µM (inactive)
COc1ccc(Nc2nc(C(=O)N3CCc4cc(OC)c(OC)cc4C3)cs2)cc1 | 8.5 µM
COC(=O)c1ccc(N)c(N=CC2=C(O)CC(C)(C)CC2=O)c1 | 41.4 µM (inactive)
Cc1[nH]c2ccccc2c1/C=N/NC(=O)c1cc(-c2cccs2)[nH]n1 | > 79 µM (inactive)
Cc1ccc(C=NNc2nc3c([nH]2)c(=O)n(C)c(=O)n3C)cc1 | > 79 µM (inactive)
COc1cccc(-c2cnc3c(NC=O)cc(-c4cc(OC)c(OC)c(OC)c4)cn23)c1 | > 79 µM (inactive)
Cc1ccc(C(C(=O)NCc2ccccc2)N(Cc2ccco2)C(=O)c2snc(C(N)=O)c2N)o1 (centres undefined) | > 79 µM (inactive)
Nc1c(C(=O)N/N=C/c2cccnc2)oc2nc(-c3ccco3)cc(-c3ccco3)c12 | > 79 µM (inactive)
COc1nc(N/N=C/c2cc3c(cc2Br)OCO3)nc(N2CCOCC2)n1 | > 79 µM (inactive)
CC(=O)Nc1cc(-c2ccc(C(=O)NC3CC3)cc2)cn2c(-c3cccc(C(C)=O)c3)cnc12 | > 79 µM (inactive)
CCOc1ccc2nc(NC(=O)CN3CCC(n4nnc5cc(F)ccc54)CC3)sc2c1 | > 79 µM (inactive)
COc1ccc(-c2cc(-c3nnc(COC(=O)C4CC4)o3)c3ccccc3n2)cc1OC | > 79 µM (inactive)
O=C(NCC(=O)N(Cc1cccs1)C(C(=O)NC1CCCCC1)c1ccco1)c1ccco1 (centres undefined) | > 79 µM (inactive)
O=C(C(=O)N(Cc1ccccc1)Cc1ccccc1)c1c(-c2ccccc2)[nH]c2ccccc12 | > 79 µM (inactive)
COc1cc(C(=O)N/N=C/c2ccc(OC(=O)c3cccc(C)c3)c(OC)c2)ccc1O | 31.2 µM (inactive)
COc1cccc(-c2cnc3c(NC=O)cc(-c4ccc(O)c(OC)c4)cn23)c1 | > 79 µM (inactive)
CCOc1ccc(C(C(=O)NCC2CCCO2)N(C(=O)c2snc(C(N)=O)c2N)c2ccccc2F)cc1 (centres undefined) | 10.4 µM
COc1cc(NC(=O)c2cc3ccccc3cc2OC)ccc1NC(=O)c1cccs1 | 4.22 µM
CCOc1ccccc1Nc1nnc(SCc2nnc(-c3cc(OC)c(OC)c(OC)c3)o2)s1 | 10 µM
COc1ccccc1OP(=O)(Nc1cccnc1)Oc1ccccc1OC | > 79 µM (inactive)

SMILES | IC50
c1ccc(-c2nc(-n3ccnc3)nc(-n3ccnc3)n2)cc1 | > 79 µM (inactive)
COc1ccc(OC)c(/C=N/NC(=O)c2cc3c(OC)c(OC)ccc3[nH]2)c1 | 1.82 µM
Cc1ccc(-c2csc(N3CCC[C@@H]3C(=O)NCCn3c(-c4ccncc4)nc4ccccc43)n2)cc1 | > 79 µM (inactive)
CC(OC(=O)c1cc(-c2cccnc2)nc2ccccc12)C(=O)Nc1ccc2ccccc2c1 (centres undefined) | > 79 µM (inactive)
Cc1cc(N)n(-c2nc(-c3cccnc3)nc3ccccc23)n1 | > 79 µM (inactive)
Fc1ccc(-n2cc(-c3ccccc3)c3c(N4CCOCC4)ncnc32)cc1 | > 79 µM (inactive)
CCn1nc(C(=O)Nc2nc(-c3ccccn3)cs2)c2ccccc2c1=O | 33 µM (inactive)
COc1cc(-c2cc3nc(NCCOc4ccccc4)ccn3n2)cc(OC)c1OC | > 79 µM (inactive)
COc1ccc(NC(=O)c2cc(-c3ccccn3)nc3ccccc23)cc1S(=O)(=O)N(C)C | > 79 µM (inactive)
COc1cccc(Nc2nc(-c3sc(NC(=O)c4ccco4)nc3C)cs2)c1 | 26.4 µM (inactive)
COc1cc(-c2cc(C(=O)Nc3ccccc3N3CCOCC3)c3ccccc3n2)cc(OC)c1OC | 4.24 µM
CC1Nc2ncnc(N3CCN(c4ccccc4)CC3)c2N(Cc2ccc(Cl)cc2)C1=O (centres undefined) | > 79 µM (inactive)
COC(=O)c1[nH]c2ccccc2c1NC(=O)CNC1CCCCC1 | > 79 µM (inactive)
C[C@H](NC(=O)c1nc[nH]c1C(=O)NCC(=O)OCc1ccccc1)c1ccccc1 | > 79 µM (inactive)
CCOC(=O)c1ccc(NC(=O)c2nc[nH]c2C(=O)NCCCCCNC(=O)OC(C)(C)C)cc1 | > 79 µM (inactive)
O=C(CNC(=O)c1nc[nH]c1C(=O)NCC(=O)OCc1ccccc1)OCc1ccccc1 | > 79 µM (inactive)
COc1ccc(/C=N/NC(=O)c2ccc(COc3cccc4cccnc34)cc2)cc1OC | 6.02 µM
COc1cccc(-c2cnc3c(NC=O)cc(-c4cc(C)c(O)c(C)c4)cn23)c1 | 4.55 µM
COc1ccc(-c2cc(C(=O)N(C)Cc3nc4ccccc4c(=O)[nH]3)c3ccccc3n2)cc1OC | 21.3 µM (inactive)
COc1cc(NC(=O)c2cc3nc(-c4ccccc4)cc(-c4ccccc4)n3n2)cc(OC)c1OC | 8.71 µM
COc1ccc(C(C(=O)NCc2ccccc2)N(Cc2ccco2)C(=O)c2snc(C(N)=O)c2N)cc1 (centres undefined) | 44.1 µM (inactive)
COc1ccc(N(CC(=O)Nc2cccc(C(C)=O)c2)S(=O)(=O)c2ccc(NC(C)=O)cc2)cc1 | > 79 µM (inactive)

SMILES | IC50
COc1ccc(COc2cc(-c3cccc(OC)c3)nc3ccc(NC(=O)c4cccnc4)cc23)cc1 | 4.53 µM
Cc1ccc(-n2cc(-c3ccccc3)c3c(N4CCOCC4)ncnc32)cc1 | > 79 µM (inactive)
CCOc1cc(/C=C(\C#N)C(=O)Nc2ccc(S(N)(=O)=O)cc2)ccc1OCCN1CCOCC1 | > 79 µM (inactive)
Brc1cc2c(cc1/C=N/Nc1nc(N3CCCC3)nc(N3CCOCC3)n1)OCO2 | 10.9 µM
COc1cccc(CN(C)C(=O)C(Cc2ccccc2)NC(=O)c2ccccc2)c1OC (centres undefined) | > 79 µM (inactive)
COC(=O)c1cc2c(-c3ccccc3)cc3ccccn3c-2c1C(=O)OC | > 79 µM (inactive)
O=C(CN1CCN(c2ccccn2)CC1)Nc1ccc([N+](=O)[O-])cc1C(=O)Nc1ccccc1F | > 79 µM (inactive)
CC(C)OCCCNC(=O)CCC(=O)NNc1nc2ccccc2c2nc(-c3ccccc3)nn12 | > 79 µM (inactive)
COc1ccc(-c2cnc3c(NC=O)cc(-c4cccc(NS(C)(=O)=O)c4)cn23)cc1OC | 6.15 µM
COc1ccc(-c2csc(NC(=O)c3ccc(OCC(=O)N4CCOCC4)c(OC)c3)n2)cc1OC | 12.3 µM
COc1ccc2[nH]c(=O)c(CN(Cc3cccnc3)S(=O)(=O)c3ccccc3F)cc2c1 | > 79 µM (inactive)
COc1ccc(C(C(=O)NC2CCCC2)N(C(=O)c2snc(C(N)=O)c2N)c2cccc(O)c2)cc1 (centres undefined) | 23.9 µM (inactive)
CC(=O)c1ccc(-c2cnc3c(NC=O)cc(-c4cccc(NS(C)(=O)=O)c4)cn23)cc1 | 12.9 µM
Cc1cccc(NC(=O)c2oc3ccc(S(=O)(=O)N4CCOCC4)cc3c2C)c1C | 4.13 µM
COc1cc(-c2cnc3c(NC=O)cc(-c4cccnc4)cn23)cc(OC)c1OC | 16.9 µM
CC(=O)Nc1cccc(-c2cc(NC(C)=O)c3ncc(-c4ccccc4)n3c2)c1 | > 79 µM (inactive)
CCOc1ccccc1NC(=O)c1oc2ccccc2c1NC(=O)C1CCCO1 (centres undefined) | > 79 µM (inactive)
COc1cc(C(=O)N/N=C/c2ccc(OC(=O)c3ccccc3)c(OC)c2)ccc1O | > 79 µM (inactive)
COc1ccc(-c2cc(C(=O)N(C)Cc3ccc(OC)c(OC)c3OC)c3ccccc3n2)cc1OC | 11.6 µM
Cc1ccc(C)c(NC(=O)C(Sc2nc3ccccc3c(=O)n2CC(C)C)c2ccccc2)c1 (centres undefined) | > 79 µM (inactive)
